The values below come from patent publication US8697662B2, “Methods for treating Kaposi sarcoma” (PTC Therapeutics, Inc., priority 2009, dated 2014).

A short description of data set [1]: Phase 1 escalating multiple-dose study in healthy volunteers: pharmacokinetics (Table 28). The data set is classed as in vivo, human. The protocol: The study was performed under the oversight of the French health authorities. The study was not performed under an IND.
Methods. The trial was a Phase 1, randomized, escalating multiple dose, single center study conducted in 2 stages.
Capsules contained 2 mg or 20 mg of active substance.
Capsules contained 20 mg or 25 mg of active substance.
Noncompartmental methods were used to compute Tmax, Cmax, and AUC. Dose proportionality and sex effect were evaluated using ANOVA on log transformed PK parameters using dose, sex, and dose by sex as fixed factors.

A further data set concerns HT1080 spheroids. In words: 3-dimensional growth of HT1080 spheroids (DNA content, BrdU, morphology). The data set is classed as cell-based, human. The method, then: Experimental Design. HT1080 cells grown as a monolayer were trypsinized and seeded onto a 0.75% agar noble base to prevent the cells from attaching to the bottom of the tissue culture plate and to allow/promote the cells to self-adhere and grow as 3-dimensional spheroids. […] The cells were incubated for 22 and 45 hours at 37° C., in the presence of a 10% CO2 atmosphere. Spheroids were visually checked daily for morphological changes and a medium was replenished two times per week. […] These pulse labeled spheroids were then harvested, washed and trypsinized (triple action solution, Gibco), pelleted and prepared for FACS analysis with a FITC BrdU Flow Kit, (BD Pharmingen). Cells were fixed and permeabilized with paraformadehyde and DNA stained with 7-AAD followed by incubation with an antibody which specifically recognizes […] incorporated into DNA. As described in Section 9.3.1.4. Cells were analyzed and sorted by 7-AAD signal (DNA content) to determine cell cycle phase, and BrdU content (percent actively synthesizing DNA).
Spheroids, prepared as above, were treated with either vehicle alone (0.5% DMSO v/v final) added to the media or a Compounds provided herein (10 nM or 50 nM final concentration) in media to which vehicle has been added.

The test system of a further data set is HT1080 xenografts. In words: Time course of tumor size and plasma human VEGF in HT1080 xenografts. The data set is classed as in vivo, athymic nude mice. The method, then: Experimental Design. HT1080 cells (5×10^6 cells/mouse) were implanted subcutaneously in male athymic nude mice.
Tumor size was measured by calipers immediately pre-treatment and at the time of sacrifice on Day 1, 2, or 3 (5 mice per group per day). At sacrifice, the plasma was collected for assay of pathologic human VEGF concentration using an ELISA that recognizes human VEGF121 and VEGF165 (as described in Section 9.1.1.1).

The test system of the next data set is HeLa cells. As to the kind of experiment: […]-GLO luminescent cell viability assay in HeLa cultures. The data set is classed as cell-based, human. The conditions noted are these: any concentration tested. The protocol:
Experimental Design. HeLa (human cervical carcinoma) cell cultures were established under normoxic conditions (21% oxygen). HeLa cells increase VEGF production 4- to 5-fold in response to hypoxia. […] At the completion of treatment, the conditioned media were collected and the VEGF protein levels were assayed in an enzyme-linked immunosorbent assay (ELISA) with primary antibodies that recognize the soluble VEGF121 and VEGF165 isoforms (R & D Systems, Minneapolis, Minn., USA). To ensure that decreases in VEGF concentration were not due to cytotoxicity, cultures were assayed using a standard assay ([…]-GLO® Luminescent Cell Viability Assay; Promega, Madison, Wis., USA) that measures total cellular adenosine triphosphate (ATP) concentrations as an indicator of cell viability.

Turning to `COc1ccc(C2c3[nH]c4ccc(Cl)cc4c3CCN2C(=O)Oc2ccc(Cl)cc2)cc1` (racemic) [Compound #10], the “oral bioavailability (in words)” value in data set [1] was “orally bioavailable”. Moreover, in data set [1] (Stage 1 and Stage 2), the “increases in mean Cmax and AUC0-24 with dose (in words)” value is “generally dose proportional”. The “target trough plasma concentration of ~0.1 to […] (in words)” value in data set [1] (all dose levels) was “achieved”. Further, in data set [1] (continuous dosing 7 days), the “accumulation of Cmax and AUC0-24, Day 1 to Day 7” value was approximately 2 fold. Besides, the “lag time before appearance in plasma” value in data set [1] (oral capsules) was approximately 30 min. The “percentage of cells that incorporated BrdU (cells in S-phase) (in words)” value in the data set with HT1080 spheroids (HT1080 spheroids, 24 or 48 hours) is recorded as “not significantly altered”. Further, the “spheroid morphology (in words)” value with HT1080 spheroids (maintained in the presence of compound for three weeks, data not shown) is “no obvious morphological changes”. Also, the “cell cycle distribution of HT1080 spheroids (in words)” value with HT1080 spheroids (treated for 24 hours) and in the data set on HT1080 spheroids (treated for 48 hours) was “not affected” in each case. Besides, the “pathologic plasma human VEGF concentrations (in words)” value in the data set with HT1080 xenografts (Days 2 and 3, 10 mg/kg oral QD) was “continued to decline”. For the same molecule, the “pathologic plasma human VEGF levels (in words)” value with HT1080 xenografts (by Day 1) is reported as “numerically lower than in control animals”. In the data set on HT1080 xenografts (by Day 3 of treatment), the “reducing tumor derived plasma VEGF levels, comparison (in words)” value was “as active as bevacizumab and more effective than doxorubicin”. In addition, in the data set with HeLa cells, the “cytotoxicity (cell viability, ATP)” value was “No cytotoxicity was observed”.
